# Measurements as given in patent US20240269094A1, “Treatment of canine dermatitis and skin irritation” (priority 2023, published 2024).
# pEC50: −log10 of the molar value. “Also recorded” adds a separate entry of the source. Read-outs that look alike come from different tables or passages of the source.
# Experiments:
# [1] = Comparison of classes of cooling agents for applications on the canine skin (grades); design: species or system dog; key: A = excellent; B = average; C = poor; F = does not work; conditions: grade
# Text: Here are comments on grades assigned to specific classes of cooling agents (Table 3). […] The p-menthane carboxamides cover a wide range of compounds, but they are difficult for skin formulation to achieve a long duration of action. Menthol is short-acting and irritating, especially when it is near the ocular surface. The 1-dialkylphosphorylalkane known as DIPA1-7 (Cryosim-1, 1-dialkylphosphorylheptane) is an excellent skin agent, but costs are high for dermatological applications.
# oral cavity = conditions: 100 ppm in 5% sucrose; scale of 0 to 9 units; Johnson, 2018; cited from earlier work
# TRPA1 [2] = target: T1, TRPA1 (Homo sapiens, UniProt O75762); assay: Bioassay in cells transfected with TRPA1 (FIG. 4); assay type: cell-based
# T1 construct: expressed in transfected cells
# T1 sequence (O75762 whole entry, species assumed): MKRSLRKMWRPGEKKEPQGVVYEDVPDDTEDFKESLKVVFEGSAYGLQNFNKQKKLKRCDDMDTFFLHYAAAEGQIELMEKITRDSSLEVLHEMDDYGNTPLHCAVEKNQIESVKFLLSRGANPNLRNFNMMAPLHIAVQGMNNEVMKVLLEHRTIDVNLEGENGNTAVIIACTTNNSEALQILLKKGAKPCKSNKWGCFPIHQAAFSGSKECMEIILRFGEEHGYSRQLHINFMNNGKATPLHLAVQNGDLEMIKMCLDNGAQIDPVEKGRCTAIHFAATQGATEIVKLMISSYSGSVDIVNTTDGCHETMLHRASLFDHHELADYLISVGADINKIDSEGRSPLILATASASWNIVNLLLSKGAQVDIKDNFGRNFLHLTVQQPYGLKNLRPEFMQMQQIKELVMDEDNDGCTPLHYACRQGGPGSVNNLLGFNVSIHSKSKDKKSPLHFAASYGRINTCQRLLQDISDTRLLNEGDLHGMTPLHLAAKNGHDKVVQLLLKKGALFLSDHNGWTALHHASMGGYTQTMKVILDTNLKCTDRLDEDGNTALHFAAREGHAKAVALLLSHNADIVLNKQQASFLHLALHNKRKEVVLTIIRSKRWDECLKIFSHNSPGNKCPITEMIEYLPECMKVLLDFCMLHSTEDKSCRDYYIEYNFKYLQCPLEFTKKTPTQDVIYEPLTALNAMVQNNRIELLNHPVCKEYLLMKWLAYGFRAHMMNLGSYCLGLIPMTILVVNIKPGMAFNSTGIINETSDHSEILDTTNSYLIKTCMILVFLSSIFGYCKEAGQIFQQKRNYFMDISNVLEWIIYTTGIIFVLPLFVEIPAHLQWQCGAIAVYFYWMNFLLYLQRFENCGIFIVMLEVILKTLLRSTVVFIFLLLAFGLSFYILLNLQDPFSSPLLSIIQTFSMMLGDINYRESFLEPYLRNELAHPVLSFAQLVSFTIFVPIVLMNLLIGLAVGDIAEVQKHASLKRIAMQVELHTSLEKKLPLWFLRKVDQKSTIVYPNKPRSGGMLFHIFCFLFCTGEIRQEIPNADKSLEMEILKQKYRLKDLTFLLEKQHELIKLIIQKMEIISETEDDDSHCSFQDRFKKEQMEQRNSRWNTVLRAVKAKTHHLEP
# Text: (§1) FIG. 4 Bioassay of FEMA 4557 (labeled as BUDA on the graph) in TRPM8 and TRPA1. Data from the laboratory of Prof. Seok-Yong Lee at Duke University.
# (§2) FIG. 4 Bioassay of FEMA 4557 (labeled as BUDA) in TRPM8 and TRPA1. Data of Prof. Seok-Yong Lee at Duke University.
# TRPM8 [3] = target: T2, TRPM8 (Homo sapiens, UniProt Q7Z2W7); assay: Bioassay of FEMA 4557 in TRPM8 (laboratory of Prof. Seok-Yong Lee, FIG. 4); assay type: cell-based
# T2 sequence (Q7Z2W7 whole entry, species assumed): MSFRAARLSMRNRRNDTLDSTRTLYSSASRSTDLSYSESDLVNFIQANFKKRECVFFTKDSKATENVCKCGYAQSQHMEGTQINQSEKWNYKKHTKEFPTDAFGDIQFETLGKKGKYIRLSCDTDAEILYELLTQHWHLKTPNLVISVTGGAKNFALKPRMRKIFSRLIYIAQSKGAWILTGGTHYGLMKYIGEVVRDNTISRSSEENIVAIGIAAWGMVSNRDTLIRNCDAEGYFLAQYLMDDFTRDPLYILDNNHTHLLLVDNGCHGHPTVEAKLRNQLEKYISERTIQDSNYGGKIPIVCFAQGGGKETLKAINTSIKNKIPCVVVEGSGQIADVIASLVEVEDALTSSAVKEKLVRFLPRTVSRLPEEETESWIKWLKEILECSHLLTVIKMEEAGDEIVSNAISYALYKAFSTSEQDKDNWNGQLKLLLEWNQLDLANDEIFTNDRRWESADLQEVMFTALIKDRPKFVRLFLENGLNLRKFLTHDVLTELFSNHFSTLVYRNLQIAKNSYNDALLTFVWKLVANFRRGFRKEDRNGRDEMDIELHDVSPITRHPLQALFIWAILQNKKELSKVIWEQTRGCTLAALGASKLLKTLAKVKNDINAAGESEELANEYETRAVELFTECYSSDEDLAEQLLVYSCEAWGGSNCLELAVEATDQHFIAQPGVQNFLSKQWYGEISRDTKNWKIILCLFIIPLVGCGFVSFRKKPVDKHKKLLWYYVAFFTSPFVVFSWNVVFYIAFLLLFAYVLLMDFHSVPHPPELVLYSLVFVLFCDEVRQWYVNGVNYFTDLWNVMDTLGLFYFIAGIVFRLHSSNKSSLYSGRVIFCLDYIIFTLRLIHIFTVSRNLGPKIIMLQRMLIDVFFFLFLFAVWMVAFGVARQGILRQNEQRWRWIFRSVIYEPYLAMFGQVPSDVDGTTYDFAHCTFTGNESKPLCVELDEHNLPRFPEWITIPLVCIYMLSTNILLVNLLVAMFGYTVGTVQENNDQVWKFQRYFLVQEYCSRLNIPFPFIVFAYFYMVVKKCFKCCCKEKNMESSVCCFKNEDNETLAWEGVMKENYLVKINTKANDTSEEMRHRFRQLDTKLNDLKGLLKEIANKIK
# Text: as §1, §2
# TRPM8 [4] = target: T2, TRPM8; design: EC50; other: Johnson, 2.2/2.2; conditions: Ref. 5 (Johnson et al., 2018); cited from earlier work
# philtrum skin = assay: Philtrum (skin) bioassay of cooling; assay type: in vivo, human
# Procedure: FIG. 5. The philtrum bioassay. Cooling agents, prepared as a or in solution are applied to the philtrum skin. Cooling intensity is rated on a scale of 0 to 3, with 0=no changes in sensation, 1=a slight feeling of coolness, cold or tingling, 2=a clearcut feeling of coolness of cold, and 3=a robust feeling of coolness of cold. The duration of cooling was recorded until two zeroes were measured 10 min apart.
# TRPM8 EC50 Receptor Assay. […] A receptor assay is a standard tool and can be done quickly. For example, in a 384-plate assay, you can easily test 10 compounds and get dose-response data. For a chemical agonist, an in vitro TRPM8 assay generates an EC50 (median effective concentration). But the quantitative correlation between the EC50 on TRPM8 and cooling sensation was vague. That is, the science was “roughly” predictive, but there was considerable uncertainty for each agonist. […] Philtrum (Skin) Assay. For cooling sensations on the skin, it is necessary to test the substance on the skin. Wei proposed the use of the skin on the philtrum as a test site for cooling activity of chemicals (FIG. 5). The test substance is dissolved in a carrier, such as solvent, gel, or ointment and applied to the philtrum, a surface area of […]. The subject records sensations on the philtrum and environs as:
# The subject is given a form to record observations and instructions to mark sensations on the philtrum and environs as: 0=no changes in sensation, 1=a slight feeling of coolness, cold, or tingling, 2=a clearcut feeling of coolness or cold, and 3=a robust feeling of coolness and cold.
# The intervals for measurements are usually at 5, to 15 min after application, until two successive zeros are obtained. The philtrum application site is the midline groove above the upper lip border and vermilion. The gel is placed on the philtrum with a cotton-tipped applicator up to the nasolabial folds and sometimes, but not deliberately, on the lower nostrils (subnasale). Cold receptors densely innervate the philtrum skin (FIG. 5), second only to the surfaces of the eyeball and anogenitalia. The lips also have a high density of “cold spots.” Hensel et al. mapped the cold spots on the human face (cited in Dhaka et al., 2008). In animals such as the rat the mystacial pad (nose pad with vibrissae) is abundantly labeled with TRPM8-fibers. “Cold Points” linked to single-unit neuronal discharges can be measured in experimental animals. Wei has direct experience in such experiments (Poree et al., 1989).
# Dip a cotton-tipped applicator (Puritan Cotton-tipped applicators, or Q-Tips) into a reservoir bottle containing the liquid or semi-liquid (gel) test substance. The composition adhering to the cotton (about 0.1 mL) is put on the skin. The philtrum site is shown in a cartoon. A subject can practice the method in front of a mirror with a high-intensity light source. Results for test on the philtrum are in Table 8 and FIG. 5. See data in FIG. 6. Cooling agents, prepared as an 8% wt./vol. gel, was tested topically on the philtrum skin assay. The duration of cooling was recorded (min on y-axis). The startling activity of FEMA 4557, cooling for ˜3 hr, was unexpected and surprising. FEMA 3784 is also known as Cool 10 or menthoxypropanediol. […]
# [5] = test system: canine dermatitis, scratching and licking; assay: Topical treatment of canine skin irritation (case studies); assay type: in vivo, dog; conditions: 32% wt/vol liquid in 1,2-propanediol, 4% ethanol, 4% l-menthol
# [6] = test system: canine dermatitis, scratching and licking; assay: as above; assay type: in vivo, dog
# Procedure: The Applicant gave the dog's owner an airless pump dispenser containing 8% wt/vol of FEMA 4557 dispersed in 4 mg/ml of carbapol 980, formulated with 1% ethanol and 1% menthol, and instructed him to apply the gel to the skin of the dog's belly and groin.
# A twelve-year-old West Highland Terrier had periodic episodes of seasonal skin allergy. […] The owner of the dog, who had access to a pharmacy, applied nystatin ointment and a potent skin steroid cream containing […].
# Next, a 20% wt/vol FEMA 4557 solution, dissolved in propylene glycol, was applied to the interdigital folds of the paws with a cotton-tipped applicator (FIG. 9).
# TRPA1 [7] = target: T1, TRPA1; conditions: Johnson et al. 2018; applicant could not repeat; cited from earlier work
# tongue = assay: Oral cavity screen: 15 mg of crystals on the dorsal surface of the tongue; assay type: in vivo, human
# Procedure: In this discovery, sensory activity in the oral cavity was the first screen. The goal was to identify candidates producing unusual sensations. Test agents, prepared as 15 mg of white crystals, were placed on the dorsal surface of the tongue. The chemical structures and identifying characteristics are in Table 1. […] Related cooling agents were not freezing cold, except for WS-23.
# [8] = 8% wt/vol gel with ethanol, 1,2-propanediol, carbomer and dispersing agent or 0.2% DIPA-1-7 initiator
# [9] = topical liquid or gel, Table 11
compound,measurement,setting,value
"CCNC(=O)C(CC)(C(C)C)C(C)C [FEMA 4557, N-ethyl-2,2-diisopropylbutanamide]",Absence of Irritancy,[1],A
same,Potency,[1],C
same,Rapid Onset,[1],B
same,Safety in Use,[1],A
same,Sufficient Duration,[1],A+
same,Cooling Intensity Oral Cavity Scaled,oral cavity,3.3
same,activity on TRPA1,TRPA1 [2],absence of activity; also recorded: not active
same,EC50 potency relative to l-menthol,TRPM8 [3]; FIG. 4,about 1/30
same,pEC50,"TRPM8 [3]; FIG. 4, estimated",3.39
same,activity on TRPM8 as % of the activity of l-menthol,TRPM8 [3]; further experiments by the applicant,10%
same,potency relative to menthol,TRPM8 [3]; tests by Prof Lee (FIG. 4),< 0.1
same,pEC50,TRPM8 [4],5.80
same,average time of cooling,philtrum skin; 8% concentration,≥ 175 min
same,Duration of cooling,"philtrum skin; 8% wt./vol. gel, FIG. 6",~3 h
same,Comments: quality of sensation on philtrum skin,philtrum skin; 8% wt/vol,"icy cold sensations, prolonged cooling,"
same,duration of effect of topical gel,philtrum skin; [8],≥ 3 h
same,onset of topical gel,philtrum skin; [8],less than 3 min
same,Duration of cooling,philtrum skin; 8% wt/vol on philtrum,180+ min
same,total therapeutic duration,philtrum skin; 16 to 32%,at least 6 hr
same,after effect: further cooling on the skin,"philtrum skin; 16 to 32%, revealed by warm towel",3 h
same,cooling duration compared to menthol,philtrum skin; >180/25,> 7 fold
same,Duration-Skin,"philtrum skin; Wei, Table 6, see FIG. 6",3+ Hours
same,Duration of cooling,"philtrum skin; concentrations ≥5%, FIG. 7",≥ 1 h
same,skin tissue irritation or inflammation,"philtrum skin; concentrations ≥5%, up to 50% wt/vol",not observed or detected
same,average time of cooling,philtrum skin; first concentration of '2.4 and 8%' (2%),50 min
same,effective concentration for topical activity on the skin,philtrum skin; in vivo,≥ 5%
same,average time of cooling,philtrum skin; second concentration of '2.4 and 8%' (4%),95 min
same,Duration of cooling,philtrum skin; single dose of the 16 to 32% solution,~3 h
same,sensation on the philtrum,philtrum skin; solution at ≥64%,pleasant and robust cool
same,adverse sensations of stinging cold,philtrum skin; solution at ≥64% on the philtrum,No cold stinging sensations were felt
same,tolerability on the skin,philtrum skin; solutions of ≥32%,well-tolerated
same,Onset,philtrum skin; [9],~10 min
same,effect on scratching and rashes,[5],effective for scratching caused by bites of ectoparasites and rashes caused by yeast infection
same,scratching and licking,"[6]; Study 2, Dachshund, 8% wt/vol gel on belly and groin, within one day",scratching and licking were reduced
same,redness and swelling,"[6]; Study 2, after three days of daily application of 8% gel",the redness and swelling disappeared
same,licking of paws,"[6]; Study 3, 20% wt/vol solution in propylene glycol on interdigital folds",stopped licking its front paws
same,scratching,"[6]; Study 3, West Highland Terrier, 8% gel on groin, hindquarters, perianal area",stopped the scratching
same,signs of skin discomfort,"[6]; Study 3, after five days of treatment",All signs of skin discomfort disappeared
same,anti-itch effect of topical formulations,"[6]; topical gel or solution, insect bites, dermatitis, allergies",effectively treated the itch; also recorded: anti-itch effects on flea bites and other skin
same,Side-effects,[6]; [9],None observed
same,activity on TRPA1 as reported in literature,TRPA1 [7],activates TRPA1
same,Effects of 15 mg on tongue: duration,tongue,> 35 min
same,Effects of 15 mg on tongue: sensation,tongue,"stinging, freezing, and painful cold on the throat; also recorded: stinging, painful freezing cold in throat"
same,Effects of 15 mg on tongue: sensation,tongue; listed as 4557,"stinging, painful cold"
